The text below walks through data of BindingDB's records for doi:10.1016/j.chembiol.2010.07.014 (Brandeis University, 2010).

What all share (test): Inhibition Assay
Holding throughout (conditions): pH 8; 25 °C

Experiment [1] has as its target T1, Inosine-5'-monophosphate dehydrogenase (Borreliella burgdorferi (strain ATCC 35210 / DSM 4680 / CIP 102532 / B31), UniProt P49058).
T1 sequence (P49058 whole entry): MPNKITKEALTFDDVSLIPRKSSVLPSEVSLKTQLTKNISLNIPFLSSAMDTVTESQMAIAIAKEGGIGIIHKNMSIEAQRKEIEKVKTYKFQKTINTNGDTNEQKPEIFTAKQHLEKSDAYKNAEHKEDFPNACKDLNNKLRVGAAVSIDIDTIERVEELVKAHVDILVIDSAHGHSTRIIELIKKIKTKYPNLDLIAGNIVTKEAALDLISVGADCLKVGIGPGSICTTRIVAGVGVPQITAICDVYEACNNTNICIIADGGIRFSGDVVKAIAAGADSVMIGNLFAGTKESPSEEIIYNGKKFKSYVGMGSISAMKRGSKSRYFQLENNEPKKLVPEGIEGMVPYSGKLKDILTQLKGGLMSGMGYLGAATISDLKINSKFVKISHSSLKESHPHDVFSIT
From the text: (§1) Inhibition assay using inosine 5'-onophosphate dehydrogenase (IMPD).

The target of experiment [2] is T2, Inosine-5'-monophosphate dehydrogenase (Helicobacter pylori (strain G27), UniProt B5Z7J4).
T2 sequence (B5Z7J4 whole entry): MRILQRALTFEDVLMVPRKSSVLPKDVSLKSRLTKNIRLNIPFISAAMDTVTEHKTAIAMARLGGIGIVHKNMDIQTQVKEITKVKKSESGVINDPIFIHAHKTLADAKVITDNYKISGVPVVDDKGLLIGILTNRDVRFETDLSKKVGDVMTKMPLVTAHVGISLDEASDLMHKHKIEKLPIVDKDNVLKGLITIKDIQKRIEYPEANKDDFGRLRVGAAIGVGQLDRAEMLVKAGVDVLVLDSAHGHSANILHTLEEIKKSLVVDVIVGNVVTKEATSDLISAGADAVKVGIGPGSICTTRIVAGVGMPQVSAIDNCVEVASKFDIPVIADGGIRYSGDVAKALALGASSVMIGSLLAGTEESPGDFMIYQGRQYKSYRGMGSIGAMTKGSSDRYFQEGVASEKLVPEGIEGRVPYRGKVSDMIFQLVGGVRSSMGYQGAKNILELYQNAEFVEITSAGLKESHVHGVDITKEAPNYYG
Excerpt: as §1

Experiment [3] concerns the target Inosine-5'-monophosphate dehydrogenase (Streptococcus pyogenes, UniProt P0C0H6).
Excerpt: as §1

The target in experiment [4] is T3, Inosine-5'-monophosphate dehydrogenase (Cryptosporidium parvum, UniProt Q8T6T2).
T3 sequence (Q8T6T2 whole entry): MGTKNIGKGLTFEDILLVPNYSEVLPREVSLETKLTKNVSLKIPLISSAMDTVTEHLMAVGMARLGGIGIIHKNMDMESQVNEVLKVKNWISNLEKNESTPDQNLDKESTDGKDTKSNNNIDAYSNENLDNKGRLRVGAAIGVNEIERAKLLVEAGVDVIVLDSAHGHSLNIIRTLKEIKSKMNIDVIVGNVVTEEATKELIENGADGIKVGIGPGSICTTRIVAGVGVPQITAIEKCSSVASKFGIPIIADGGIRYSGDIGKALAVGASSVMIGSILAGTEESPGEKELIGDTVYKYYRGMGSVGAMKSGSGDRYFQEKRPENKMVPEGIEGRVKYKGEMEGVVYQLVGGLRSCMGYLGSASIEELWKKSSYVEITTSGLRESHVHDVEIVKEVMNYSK
Excerpt: as §1

Sequence of Inosine-5'-monophosphate dehydrogenase (Streptococcus pyogenes, UniProt P0C0H6) (P0C0H6 whole entry): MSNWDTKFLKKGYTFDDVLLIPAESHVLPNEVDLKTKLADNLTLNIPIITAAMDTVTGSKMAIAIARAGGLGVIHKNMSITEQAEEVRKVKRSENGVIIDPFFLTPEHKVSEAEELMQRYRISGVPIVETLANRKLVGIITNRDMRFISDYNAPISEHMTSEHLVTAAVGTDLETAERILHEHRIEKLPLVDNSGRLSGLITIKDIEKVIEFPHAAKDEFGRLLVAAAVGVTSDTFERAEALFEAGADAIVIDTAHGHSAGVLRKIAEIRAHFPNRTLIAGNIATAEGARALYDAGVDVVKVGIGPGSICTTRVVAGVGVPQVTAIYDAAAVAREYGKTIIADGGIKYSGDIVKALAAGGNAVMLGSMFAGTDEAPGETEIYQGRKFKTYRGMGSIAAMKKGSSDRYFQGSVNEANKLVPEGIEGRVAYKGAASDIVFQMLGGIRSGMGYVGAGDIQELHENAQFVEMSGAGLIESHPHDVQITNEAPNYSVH

As usually defined, the IC50 is the midpoint of a concentration-inhibition curve. High values mean weaker potency, low ones greater potency. Regarding `CC(Oc1ccccc1)C(=O)Nc1ccc(Cl)cc1` (centres undefined), the figures for the half-maximal inhibitory concentration (IC50) in experiment [1], in experiment [2] and in experiment [3] were 1400 nM, 2200 nM and 96000 nM, respectively.

Consider `Nc1ccc(C(=O)OCc2nc3cc4ccccc4cc3[nH]2)cc1` [1H-naphtho[2,3-d]imidazol-2-ylmethyl 4-aminobenzoate, Compound G], for which the IC50 in experiment [1] came out at 220 nM; in experiment [4], 100 nM; in experiment [2], 300 nM; in experiment [3], 550 nM.

Consider `Nc1ccc(C(=O)OCCCc2nc3cc4ccccc4cc3[nH]2)cc1` [3-{1H-naphtho[2,3-d]imidazol-2-yl}propyl 4-aminobenzoate, Compound H], for which the IC50 in experiment [1] came out at 900 nM; in experiment [4], 900 nM; in experiment [2], 1200 nM; in experiment [3] it was 860 nM.

For the molecule `COc1ccc(NC(=O)Cc2nn(C)c(=O)c3ccccc23)cc1` [N-(4-methoxyphenyl)-2-(3-methyl-4-oxo-3,4-dihydrophthalazin-1-yl)acetamide, Compound D], the half-maximal inhibitory concentration (IC50) in experiment [1] amounted to 1700 nM; in experiment [4] it was 5400 nM; in experiment [2] it was 3000 nM; in experiment [3], 49000 nM.

Take `COc1ccc(NC(=O)Cc2cccc3ccccc23)cc1` [N-(4-methoxyphenyl)-2-(naphthalen-1-yl)acetamide, Compound B]: the IC50 in experiment [1] came to 1800 nM; in experiment [4], 1600 nM; in experiment [2], 1300 nM; in experiment [3], 85000 nM.

For the molecule `COc1ccc(NC(=O)Cn2c(-c3cscn3)nc3ccccc32)cc1` [N-(4-methoxyphenyl)-2-[2-(1,3-thiazol-4-yl)-1H-1,3-benzodiazol-1-yl]acetamide, Compound C], the concentration for half-maximal inhibition (IC50) in experiment [1] stood at 600 nM; in experiment [4] it was 1200 nM; in experiment [2], 600 nM; in experiment [3] it was 70000 nM.

With `O=C(Cn1c(-c2ccccn2)nc2ccccc21)Nc1ccc2ccccc2c1` [N-(naphthalen-2-yl)-2-[2-(pyridin-2-yl)-1H-1,3-benzodiazol-1-yl]acetamide, Compound C91], the figures for the IC50 in experiment [4], in experiment [2] and in experiment [3] were 8 nM, 1.1 nM and 5.4 nM, respectively.

Regarding `CCn1c(SCC(=O)Nc2ccc(OC)cc2)nc2ccsc2c1=O` [l-4-oxo-3H,4H-thieno[3,2-d]pyrimidin-2-yl}sulfanyl)-N-(4-methoxyphenyl)acetamide, Compound F], the IC50 in experiment [1] is 800 nM; in experiment [4] it was 1400 nM; in experiment [2] it was 1100 nM; in experiment [3], 13000 nM.

For `COC(=O)c1c(C)c(=O)[nH]c2ccccc12` [methyl 3-methyl-2-oxo-1,2-dihydroquinoline-4-carboxylate, Compound E], the IC50 in experiment [1] came to 900 nM; in experiment [4] it was 1600 nM; in experiment [2] it was 1500 nM; in experiment [3], 15000 nM.
